Reference: US12053480B2, “Methods and pharmaceutical compositions for treating peripheral demyelinating diseases” (INSERM (INSTITUT NATIONAL DE LA SANTE ET DE LA RECHERCHE …, priority 2015, dated 2024)

Tests used:
[1] = target: T1, VDAC1 (Mus musculus, UniProt Q60932); test: Mitochondrial calcium imaging (mito-GCaMP2, multiphoton) in mSC of mouse sciatic nerve, nerve crush model; assay type: in vivo; details: for mSC mitochondria calcium concentration: non-crushed nerves, two hours after injections, compared to vehicle injection; for mitochondrial calcium release in mSC after nerve crush: mito-GCaMP2, VDAC1 silenced or drug given before crush
T1 construct: strongly expressed in mSC mitochondria; from tissue; host or cells: myelinating Schwann cells (mSC) of the sciatic nerve of living mice (wild type; db/db and +/db in A10)
T1 sequence (Q60932 14-296): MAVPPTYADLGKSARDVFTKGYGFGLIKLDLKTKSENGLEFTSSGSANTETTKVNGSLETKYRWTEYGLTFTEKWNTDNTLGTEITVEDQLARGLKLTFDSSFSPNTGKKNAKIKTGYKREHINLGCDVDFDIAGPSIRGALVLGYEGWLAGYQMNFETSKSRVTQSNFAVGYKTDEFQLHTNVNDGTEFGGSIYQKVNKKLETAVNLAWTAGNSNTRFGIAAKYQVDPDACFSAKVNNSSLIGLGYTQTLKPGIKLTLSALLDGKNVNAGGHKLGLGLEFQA
Procedure: (§1) Mice were anesthetized with isoflurane inhalation and placed under a Stemi2000 microscope (Zeiss). Incision area was shaved and cleaned using betadine solution. After incision, the gluteus superficialis and biceps femoris muscles were separated to reveal the cavity traversed by the sciatic nerve. The nerve was lift out using spatula and a thin glass needle filled with viral solution (8 μl) was introduced into the nerve with a micromanipulator. This solution was injected over 30 min with short pressure pulses using a Picospritzer III (Parker Hannifin) coupled to a pulse generator. After injection, the nerve was replaced into the cavity, the muscles were readjusted, and the wound was closed using clips (for further details see Gonzalez et al., 2014^3).
(§2) TRO19622 drug (Tocris bioscience, Ref. 2906) was diluted in ethanol to 20 mM and then, the solution was diluted in sterile PBS to 20 μM. TRO19622 treatments were realized by 3 mg/kg intraperitoneal (IP) injections of 20 mM solution or by intra sciatic nerve injections of 2 μl of drug solution 2 μM using a Hamilton syringe or a glass needle in sterile conditions 30 minutes before multiphoton image acquisitions or immunohistochemistry and demyelination studies respectively. Methyl jasmonate drug (Sigma-Aldrich, Ref. 392707) was diluted in 1 ml of sterile PBS to 1M or 3M. Methyl jasmonate treatments were realized by intra sciatic nerve injections of 1 μl of drug solution using a glass needle and micromanipulator in sterile conditions following the same virus injections procedure (see in vivo virus injection in the sciatic nerve method) two hours before multiphoton image acquisition. […] All drug concentrations were previously evaluated by Bordet et al, 2007^5; Goldin et al, 2008^6; Sharov et al, 2007^7.
(§3) First injected mouse was anesthetized with 5% of isoflurane a 1.5% of oxygen into the anesthesia system box (World Precision Instruments, Ref. EZ-B800) for 5 minutes. Anesthesia controls were realized^8. Then, mouse was placed in anesthesia mask and the incision area was shaved and cleaned with betadine and ethanol 70% solution. Incision was realized using a scalpel and the skin was retracted using forceps in order to expose the gluteus superficialis and bleeps femoris muscles. Next, the connective tissue that connects both muscles was cut and the sciatic nerve was gently lifted out using a spatula. A flexible bridge was slide below sciatic nerve and it was placed into a plastic first pool fixed to the bridge. Mouse was placed under the multiphoton microscope, the bridge was fixed using magnetic brackets to avoid physiological movement and mouse legs were fixed using clippers. Microscope dark box temperature is controlled to 37° C. during all time-lapse imaging. Finally, a second pool was fixed to the first pool using a drop of agarose low melting 3% (Promega, Ref. V2111) in Leibovitz's L15 medium (Gibco Life Technologies) and filled with deionized water to immerse the objectives 20× or 63× (Carl Zeiss Microscopy).
(§4) All time-lapse images were obtained with a multiphoton microscope Zeiss LSM 7 MP OPO. Mitochondria motility images were acquired by time-lapse recording of one image every five minutes during five hours at 920 nm. GCaMP2 and SypHer probe images were acquired by time-lapse recording of one image every fifteen minutes during five hours at 985 nm. Images were acquired to constant 1% of laser intensity to 100 msec of acquisition time with 512×512 resolution and 10 images of z-stack of 20 μm. Images were saved in Zeiss .czi format and processed using Image J program. For further details see Gonzalez et al., 201X^8
(§5) To characterize mitochondria physiology during the demyelination process we combined two in vivo methods. We used the nerve crush model to reliably induce demyelination in the mouse sciatic nerve and a viral approach^19 allowing the expression of different fluorescent probes selectively into mitochondria of myelinating Schwann cells (mSC) in mouse sciatic nerve.

[2] = target: T1, VDAC1; test: Cytoplasmic calcium imaging (GCaMP2, multiphoton) in mSC of mouse sciatic nerve; assay type: in vivo; details: for presence of cytoplasmic calcium in mSC after crush: cytoplasmic GCaMP2, after nerve crush
Procedure: as §1, §2, §3, §4
as §5, with “nerve. […]” for “nerve.”

[3] = system: mSC mitochondria; test: Mitochondrial pH imaging (mito-SypHer) in mSC of mouse sciatic nerve; assay type: in vivo
Procedure: as §1, §2
First injected mouse was anesthetized with 5% of isoflurane a 1.5% of oxygen into the anesthesia system box (World Precision Instruments, Ref. EZ-B800) for 5 minutes. Anesthesia controls were realized^8. Then, mouse was placed in anesthesia mask and the incision area was shaved and cleaned with betadine and ethanol 70% solution. […]

[4] = system: mSC mitochondria; test: Mitochondrial motility imaging (mito-dsRed2) in mSC of mouse sciatic nerve; assay type: in vivo; details: for loss of mitochondrial motility after nerve crush: 5 hours after nerve injury, TRO19622 30 minutes before crush
Procedure: as §1, §2, §3
as §4, with “Images were saved in Zeiss .czi format and processed using Image J program. For further details see Gonzalez et al., 201X^8” left out

[5] = system: phospho-ERK1/2, phospho-p38, phospho-JNK and phospho-c-jun; test: Western blot of demyelination signaling pathways in sciatic nerve after crush or MJ; assay type: in vivo, mouse; details: nerves not crushed; 4 or 12 hours after treatment
Procedure: as §2

[6] = system: phospho-c-jun; test: Immunohistochemistry of nuclear phospho-c-jun in mSC after nerve crush or MJ; assay type: in vivo, mouse; details: for nuclear phospho-c-jun in mSC after nerve crush: immunohistochemistry, TRO19622 30 minutes prior crush
Procedure: The dissected nerve was washed in L15 medium, fixed in Zamboni's fixative (Stefanini et al., 1967^4) for 10 min at room temperature, washed in PBS, and incubated in successive glycerol baths (15, 45, 60, 66% in PBS) for 18 to 24 h each before freezing at −20° C. The nerves were cut in small pieces in 66% glycerol and the perineurium sheet removed. Small bundles of fibers were teased in double-distilled water on Superfrost slides, dried overnight at room temperature, and the slides stored at −20° C. For immunostaining, the teased fibers were incubated for 1 h at room temperature in blocking solution (10% goat serum, 0.2% TritonX100, and 0.01% sodium azide in PBS). Then, the samples were then incubated with anti-ECCD2 primary mouse antibody (1/100, BD biosciences, Ref. 610181), anti-phosphoS63-c-jun primary mouse antibody (1/200, BD Biosciences, Ref. 558036), anti-c-jun primary mouse antibody (1/200, BD Biosciences, Ref. 610326), anti-VDAC primary rabbit antibody (1/100, Cell Signaling, Ref. 4866) or/and MitoTracker Red (1/1000, Molecular Probes, Ref. M7515) in blocking solution overnight at 4° C. The next day, the samples were washed in PBS and incubated for 1 h at room temperature with secondary donkey antibodies coupled to Alexa488, Alexa 594 or Alexa647 (1/1600, Molecular probes) and TO-PRO-3 iodide (50 μM, Invitroge, Ref. T3605). Finally the samples were washed in PBS and mounted in Immu-mount (Thermo Scientific). Images were acquired at room temperature using a 20× or 40× objective, a Zeiss confocal microscope LSM710, and its associated software.
as §2
To go further we also selectively silenced VDAC1 in mSC and measured the expression level of nuclear phospho-c-jun by immunohistochemistry after nerve crush. […]

[7] = system: myelinating Schwann cells; test: mSC demyelination morphology (confocal microscopy) four days after nerve crush; assay type: in vivo, mouse; details: for number of myelinating cell remaining after crush: four days after crush
Procedure: as §1, §2
Finally we also investigated the demyelination using typical defects induced in the cellular morphology of mSC. Nerves expressing control or VDAC1 shRNAs were crushed to induce demyelination and four days later, when demyelination is maximal, we analyzed the morphology of VDAC1-silenced mSC using confocal microscopy as described previously^19. mSC display long homogenous noodle-like morphology with a regular diameter but during demyelination, they acquire a heterogeneous morphology often alterning large structures (myelin ovoids) with thin processes and their extremities split in fine extensions.

[8] = system: phospho-bcl2, cleaved caspase-3; details: after MJ treatment
Procedure: To investigate the signaling pathways induced by mitochondrial calcium release, sciatic nerves were treated with vehicle or TRO19622 before crush or with MJ without crush and phosphorylation-activated pathways were determined by western blot 4 hours or 12 hours after nerve crush or MJ treatment. […] While it is known that SC demyelination is not due to cell death but to a dedifferentiation process, we nevertheless checked mitochondria-related cell death factors in crushed or MJ treated nerves.

Row | Compound | mSC mitochondria calcium concentration [1] | mSC mitochondria calcium concentration ([1]; listed as methyl jasmonate) | calcium presence in the cytoplasm ([2]; MJ treatment, non-crushed nerves) | mitochondrial pH ([3]; non-crushed nerves) | mitochondrial motility ([4]; without crush) | phosphorylation-activated pathways and phospho-c-jun [5] | nuclear phospho-c-jun ([6]; nerves treated with MJ) | number of demyelinating cells ([7]; non-crushed sciatic nerves) | phospho-bcl2 and cleaved caspase-3 levels [8] | mitochondrial calcium release in mSC after nerve crush [1] | presence of cytoplasmic calcium in mSC after crush [2] | loss of mitochondrial motility after nerve crush [4] | nuclear phospho-c-jun in mSC after nerve crush [6] | number of myelinating cell remaining after crush [7] | mitochondrial calcium release in mSC after nerve crush ([1]; listed as VDAC shRNA3) | part of the calcium appearing in the cytoplasm after nerve crush that is not abolished (non-mitochondrial origin) ([2]; after nerve crush with VDAC1 silenced or blocked) | changes induced by nerve crush in mitochondrial pH not abrogated ([3]; after nerve crush) | changes induced by nerve crush in mitochondrial motility not abrogated ([4]; after nerve crush)
1 | CC/C=C\CC1C(=O)CCC1CC(=O)OC (centres unmarked) [MJ, methyl jasmonate] | sharply decreased | induced mitochondrial calcium release | increased | increase | decreased | significant increase | robust increase | significant increase | Neither phospho-bcl2 nor cleaved caspase-3 levels were increased |  |  |  |  |  |  |  |  | 
2 | VDAC1 shRNA2: VDAC1 shRNA sequence 2 GTTGGCTATAAGACGGATGAACT (Sigma-Aldrich, Ref. #TRCN0000012391), expressed from AAV vector (expressed from AAV vector) |  |  |  |  |  |  |  |  |  | significantly reduced | more modest | significantly prevented | strong reduction | significant increase |  |  |  | 
3 | VDAC1 shRNA3: VDAC1 shRNA sequence 3 ACCAGGTATCAAACTGACGTTCT (Sigma-Aldrich, Ref. #TRCN0000012392), expressed from AAV vector (expressed from AAV vector) |  |  |  |  |  |  |  |  |  | completely inhibited | strongly reduced | significantly prevented | strong reduction | significant increase | completely abolished | 13% | 12% | 20%
